In experiment [1] the target is T1, SlGSTD1 (Spodoptera litura, UniProt A0A9J7IUS4).
T1 construct: gene LOC111355915
T1 sequence (A0A9J7IUS4 1-221): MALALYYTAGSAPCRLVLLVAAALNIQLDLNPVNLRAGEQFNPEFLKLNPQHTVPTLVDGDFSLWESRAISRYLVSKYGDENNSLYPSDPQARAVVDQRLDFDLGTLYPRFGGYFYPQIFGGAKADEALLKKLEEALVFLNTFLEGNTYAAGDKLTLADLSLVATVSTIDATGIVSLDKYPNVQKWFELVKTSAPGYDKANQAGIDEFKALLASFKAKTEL
Briefly: inhibition of GSH-CDNB conjugation, A340. In kind it is biochemical.

Experiment [2] deals with T1, SlGSTD1. The experiment in a line: GSH conjugation, A340, Michaelis-Menten fit. Type of experiment: biochemical. Conditions: GSH 30 μL of 100 μmol mL^−1 in about 1.1 mL; PBS 0.1 mol L^−1 pH 7.0.

Read-outs that look alike come from different tables or passages of the source.

The source of these data is PMC9203748, “Metabolism and antioxidant activity of SlGSTD1 in Spodoptera litura as a detoxification enzyme to pyrethroids” (Scientific Reports, 2022).

Regarding `CCOC(=O)/C=C\C(=O)OCC` [DEM, reference compound], the IC50 on SlGSTD1 [1] (read-out: IC50) turned out to be 2.1 ± 0.3 µM.
As for `O=[N+]([O-])c1ccc(Cl)c([N+](=O)[O-])c1` [CDNB], the Km on SlGSTD1 [2] was 1.68 ± 0.11 mM.
On SlGSTD1 [1], `CCOP(=S)(OCC)Oc1nc(Cl)c(Cl)cc1Cl` [chlorpyrifos] returned a concentration for half-maximal inhibition (IC50) of 170 ± 15.2 µM.
On the same count and under the same terms, then `CC(C)C(C(=O)OC(C#N)c1cccc(Oc2ccccc2)c1)c1ccc(Cl)cc1` (centres unmarked) [fenvalerate], with 21.6 ± 3.2 µM; and `CC1(C)C(/C=C(\Cl)C(F)(F)F)C1C(=O)OC(C#N)c1cccc(Oc2ccccc2)c1` (centres unmarked) [cyhalothrin], with 124 ± 10.3 µM.
